Converted amounts (≈) assume the structure as drawn. Like-named read-outs stand apart in the source and are kept apart here. No end group written: not given here.
Assays:
[1] = system: C. albicans sp3931; settings: sp3931, 48 h; for MIC: pH 7
[2] = system: Candida strains; settings: 48 h
[3] = system: IPEC-J2 cells
[4] = system: PMEC cells
[5] = system: human erythrocytes; assay: Hemolysis assay; settings: minimal hemolytic concentration inducing 10% hemolysis of human erythrocytes; 1 h, 37°C, hemoglobin at 570 nm; probit regression; three independent experiments
[6] = system: C. albicans 17546; settings: 17546, 48 h; for MIC: pH 7
[7] = system: C. albicans cgmcc 2.2086; assay: Antifungal activity assay (broth microdilution, MIC/MFC); format: cell-based, Candida albicans
[8] = system: C. parapsilosis cgmcc 2.3989; assay: as above; format: cell-based, Candida parapsilosis
[9] = system: C. albicans sp3903; settings: sp3903, 48 h; for MIC: pH 7
[10] = system: C. albicans sp3902; settings: sp3902, 48 h; for MIC: pH 7
[11] = system: C. tropicalis cgmcc 2.1975; assay: Antifungal activity assay (broth microdilution, MIC/MFC); format: cell-based, Candida tropicalis
[12] = system: C. albicans 56214; settings: 56214, 48 h; for MIC: pH 7
[13] = system: IPEC-J2 and PMEC cells; assay: Cytotoxicity MTT assay, statements for both cell lines; settings: 24 h, 1-64 μM
[14] = system: C. albicans sp3876; settings: sp3876, 48 h; for MIC: pH 7
[15] = system: C. albicans 58288; settings: 58288, 48 h; for MIC: pH 7
[16] = system: C. albicans 14936; settings: 14936, 48 h; for MIC: pH 7
[17] = system: C. albicans 56452; settings: 56452, 48 h; for MIC: pH 7
[18] = system: C. albicans cgmcc 2.2086; assay: Membrane potential assay, DiSC3(5); format: cell-based, Candida albicans; settings: 0.5 × MIC
Description: The alteration of membrane potential in peptide-treated C. albicans was detected using the membrane potential-sensitive fluorescent probe, 3,3′-dipropylthiadicarbocyanine iodide [DiSC3(5)] (Sigma-Aldrich, Shanghai, China), as previously described ([Qi et al., 2010]). In brief, C. albicans cells in mid-logarithmic growth-phase were harvested and suspended to an OD600 of 0.05 with 5-mM 4-(2-hydroxyethyl)-1-piperazineethanesulfonic acid buffer (pH 7.4, containing 20-mM glucose). After the addition of 0.4-μM DiSC3(5), samples were incubated for 90 min in the dark to obtain a stable reduction in fluorescence, and then, potassium chloride (4 M) was added to the cell suspension to give a final concentration of 100 mM. Subsequently, 2 ml of cell suspension was added to a 1-cm quartz cuvette and mixed with peptides at different concentrations. The changes in fluorescence were recorded for 900 s with an F-4500 fluorescence spectrophotometer (Hitachi, Japan) at excitation and emission wavelengths of 622 and 670 nm, respectively.

[19] = system: C. albicans strains; assay: Geometric mean of MIC values against all tested C. albicans; format: cell-based, Candida albicans
[20] = system: C. albicans 17546; assay: microbe, parasite or virus in culture; settings: Candida albicans, 17546, 48 h
[21] = system: C. albicans 14936; assay: microbe, parasite or virus in culture; settings: Candida albicans, 14936, 48 h
[22] = system: C. albicans 58288; assay: microbe, parasite or virus in culture; settings: Candida albicans, 58288, 48 h
[23] = system: C. albicans sp3876; assay: microbe, parasite or virus in culture; settings: Candida albicans, SP3876, 48 h
[24] = system: C. albicans 56452; assay: microbe, parasite or virus in culture; settings: Candida albicans, 56452, 48 h
[25] = system: C. albicans sp3903; assay: microbe, parasite or virus in culture; settings: Candida albicans, SP3903, 48 h
[26] = system: C. albicans 56214; assay: microbe, parasite or virus in culture; settings: Candida albicans, 56214, 48 h
[27] = system: C. albicans sp3931; assay: microbe, parasite or virus in culture; settings: Candida albicans, SP3931, 48 h
[28] = system: C. albicans sp3902; assay: microbe, parasite or virus in culture; settings: Candida albicans, SP3902, 48 h
[29] = system: C. albicans cgmcc 2.2086; format: cell-based, Candida albicans
[30] = system: human erythrocytes; settings: red cells of human, 1 h
[31] = system: IPEC-J2 and PMEC cells
[32] = 50 μl of MIC wells plated on YPD agar, 28°C, 48 h, lowest concentration that completely killed fungal cells, consensus of at least three independent experiments

Compound: KIGKVLLVKGIKKIGKVL-NH2 [KV3]
- MFC [1]: 64 µM
- MIC [1]: 64 µM
- MIC values on Candida strains (range) [2]: 16 to 64 µM
- IC50 ([3]; IPEC-J2 cells, MTT, 24 h treatment, 1-64 μM, probit regression): > 64 µM
- IC50 ([4]; PMEC cells, MTT, 24 h treatment, 1-64 μM, probit regression): > 64 µM
- HC10 [5]: >64 µM
- MFC [6]: 64 µM
- MIC [6]: 64 µM
- MFC ([7]; cgmcc 2.2086, 48 h): 32 µM
- MIC ([7]; cgmcc 2.2086, 48 h, pH 7): 32 µM
- MFC ([8]; cgmcc 2.3989, 48 h): 32 µM
- MIC ([8]; cgmcc 2.3989, 48 h, pH 7): 32 µM
- MFC [9]: 64 µM
- MIC [9]: 64 µM
- MFC [10]: 64 µM
- MIC [10]: 64 µM
- MFC ([11]; cgmcc 2.1975, 48 h): 16 µM
- MIC ([11]; cgmcc 2.1975, 48 h, pH 7): 16 µM
- MFC [12]: 32 µM
- MIC [12]: 32 µM
- cytotoxic effects (in words) [13]: negligible cytotoxic effects
- MFC [14]: 32 µM
- MIC [14]: 16 µM
- MFC [15]: 64 µM
- MIC [15]: 64 µM
- MFC [16]: >64 µM
- MIC [16]: >64 µM
- MFC [17]: 64 µM
- MIC [17]: 32 µM

Compound: CC[C@H](C)[C@H](NC(=O)CN)C(=O)NCC(=O)N[C@@H](C)C(=O)N[C@H](C(=O)N[C@@H](CC(C)C)C(=O)N[C@@H](CCCCN)C(=O)N[C@H](C(=O)N[C@@H](CC(C)C)C(=O)N[C@H](C(=O)N[C@H](C(=O)NCC(=O)N[C@@H](CC(C)C)C(=O)N1CCC[C@H]1C(=O)N[C@@H](C)C(=O)N[C@@H](CC(C)C)C(=O)N[C@H](C(=O)N[C@@H](CO)C(=O)N[C@@H](Cc1c[nH]c2ccccc12)C(=O)N[C@H](C(=O)N[C@@H](CCCCN)C(=O)N[C@@H](CCCNC(=N)N)C(=O)N[C@@H](CCCCN)C(=O)N[C@@H](CCCNC(=N)N)C(=O)N[C@@H](CCC(N)=O)C(=O)N[C@@H](CCC(N)=O)C(N)=O)[C@@H](C)CC)[C@@H](C)CC)[C@@H](C)O)[C@@H](C)O)C(C)C)C(C)C [Melittin, reference compound]
- MFC [1]: 8 µM (≈ 22.8 µg/mL)
- MIC [1]: 8 µM (≈ 22.8 µg/mL)
- cytoplasmic membrane depolarization, melittin against RF3 (in words) [18]: stronger membrane depolarization
- MFC [6]: 8 µM (≈ 22.8 µg/mL)
- MIC [6]: 8 µM (≈ 22.8 µg/mL)
- MFC ([7]; cgmcc 2.2086, 48 h): 8 µM (≈ 22.8 µg/mL)
- MIC ([7]; cgmcc 2.2086, 48 h, pH 7): 4 µM (≈ 11.4 µg/mL)
- MFC ([8]; cgmcc 2.3989, 48 h): 2 µM (≈ 5.69 µg/mL)
- MIC ([8]; cgmcc 2.3989, 48 h, pH 7): 2 µM (≈ 5.69 µg/mL)
- MFC [9]: 4 µM (≈ 11.4 µg/mL)
- MIC [9]: 4 µM (≈ 11.4 µg/mL)
- MFC [10]: 2 µM (≈ 5.69 µg/mL)
- MIC [10]: 2 µM (≈ 5.69 µg/mL)
- MFC ([11]; cgmcc 2.1975, 48 h): 8 µM (≈ 22.8 µg/mL)
- MIC ([11]; cgmcc 2.1975, 48 h, pH 7): 4 µM (≈ 11.4 µg/mL)
- MFC [12]: 4 µM (≈ 11.4 µg/mL)
- MIC [12]: 4 µM (≈ 11.4 µg/mL)
- GM [19]: 4.59 µM
- MFC [14]: 4 µM (≈ 11.4 µg/mL)
- MIC [14]: 4 µM (≈ 11.4 µg/mL)
- MFC [15]: 4 µM (≈ 11.4 µg/mL)
- MIC [15]: 4 µM (≈ 11.4 µg/mL)
- MFC [16]: 8 µM (≈ 22.8 µg/mL)
- MIC [16]: 4 µM (≈ 11.4 µg/mL)
- MFC [17]: 8 µM (≈ 22.8 µg/mL)
- MIC [17]: 8 µM (≈ 22.8 µg/mL)

Compound: OC(Cn1cncn1)(Cn1cncn1)c1ccc(F)cc1F [FLU, fluconazole]
- MFC [20]: > 256 µM
- MIC ([20]; pH 7): > 256 µM
- MFC [21]: > 256 µM
- MIC ([21]; pH 7): 32 µM (≈ 9.8 µg/mL)
- MFC [22]: > 256 µM
- MIC ([22]; pH 7): 8 µM (≈ 2.45 µg/mL)
- MFC ([7]; Candida albicans, CGMCC2, 50 μl of MIC wells plated on YPD agar, 28°C, 48 h, lowest concentration that completely killed fungal cells, consensus of at least three independent experiments): 4 µM (≈ 1.23 µg/mL)
- MIC ([7]; Candida albicans, CGMCC2, broth microdilution, RPMI-MOPS pH 7.0, 28°C, 48 h, lowest concentration inhibiting 99% of growth (A492)): 2 µM (≈ 0.613 µg/mL)
- MFC ([8]; Lodderomyces parapsilosis, CGMCC2, 50 μl of MIC wells plated on YPD agar, 28°C, 48 h, lowest concentration that completely killed fungal cells, consensus of at least three independent experiments): 8 µM (≈ 2.45 µg/mL)
- MIC ([8]; Lodderomyces parapsilosis, CGMCC2, broth microdilution, RPMI-MOPS pH 7.0, 28°C, 48 h, lowest concentration inhibiting 99% of growth (A492)): 4 µM (≈ 1.23 µg/mL)
- MFC ([11]; Candida tropicalis, CGMCC2, 50 μl of MIC wells plated on YPD agar, 28°C, 48 h, lowest concentration that completely killed fungal cells, consensus of at least three independent experiments): 32 µM (≈ 9.8 µg/mL)
- MIC ([11]; Candida tropicalis, CGMCC2, broth microdilution, RPMI-MOPS pH 7.0, 28°C, 48 h, lowest concentration inhibiting 99% of growth (A492)): 4 µM (≈ 1.23 µg/mL)
- MFC [23]: > 256 µM
- MIC ([23]; pH 7): > 256 µM
- MFC [24]: > 256 µM
- MIC ([24]; pH 7): > 256 µM
- MFC [25]: 64 µM (≈ 19.6 µg/mL)
- MIC ([25]; pH 7): 16 µM (≈ 4.9 µg/mL)
- MFC [26]: > 256 µM
- MIC ([26]; pH 7): > 256 µM
- MFC [27]: 64 µM (≈ 19.6 µg/mL)
- MIC ([27]; pH 7): 1 µM (≈ 0.306 µg/mL)
- MFC [28]: > 256 µM
- MIC ([28]; pH 7): 16 µM (≈ 4.9 µg/mL)
- change of MIC after serial passage [29]: eightfold

Compound: KIGKFLLFKGIKKIGKFL-NH2 [KF3]
- MFC [1]: 32 µM
- MIC [1]: 32 µM
- IC50 ([3]; 24 h): 48.5 µM
- IC50 ([4]; 24 h): 60 µM
- MFC [6]: 64 µM
- MIC [6]: 64 µM
- MFC [7, 32]: 32 µM
- MIC ([7]; cgmcc 2.2086, 48 h, pH 7): 32 µM
- MFC [8, 32]: 32 µM
- MIC ([8]; cgmcc 2.3989, 48 h, pH 7): 32 µM
- MFC [9]: 32 µM
- MIC [9]: 32 µM
- MFC [10]: 16 µM
- MIC [10]: 16 µM
- HC10 [30]: >64 µM
- MFC [11, 32]: 8 µM
- MIC ([11]; cgmcc 2.1975, 48 h, pH 7): 8 µM
- MFC [12]: 16 µM
- MIC [12]: 16 µM
- MFC [14]: 64 µM
- MIC [14]: 64 µM
- MFC [15]: 32 µM
- MIC [15]: 32 µM
- cytotoxicity at 64 μM (in words) [31]: sharp rise in cytotoxicity
- MFC [16]: 64 µM
- MIC [16]: 64 µM
- MFC [17]: 16 µM
- MIC [17]: 16 µM

— PMC7554340, “A Novel Dual-Targeted α-Helical Peptide With Potent Antifungal Activity Against Fluconazole-Resistant Candida albicans Clinical Isolates” (Frontiers in Microbiology, 2020)
